In US8008346B2, “Chemotherapeutic agents for inhibition of protein translation” (The Royal University for the Advancement of Learning/McGill …, priority 2006, dated 2011):

Columns and labels:
[1] = test system: 80S complex formation; assay: Ribosome binding (80S complex formation) of 32P-labeled CAT mRNA in rabbit reticulocyte lysate; type: biochemical; conditions: CAT mRNA/CHX + 50 μM hippuristanol; CHX alone 22% binding
Description: (§1) FIG. 6. Hippuristanol inhibits translation initiation. A. Hippuristanol inhibits 80S complex formation. ^32P-labeled CAT mRNA was incubated in rabbit reticulocyte lysate with cycloheximide (CHX) in the presence or absence of 50 μM hippuristanol. Complexes were resolved on glycerol gradients. Total counts recovered from each gradient and the percent mRNA bound in 80S complexes were: CAT mRNA/CHX [43,498 cpm, 22% binding] and CAT mRNA/CHX+Hipp. [45,279 cpm, 5.7% binding]. B. Hippuristanol inhibits crosslinking of eIF4Ac and eIF4B to capped mRNA. Initiation factors were chemically crosslinked to ^32P cap-labeled mRNA in the absence (lane 2) or presence of ATP (lanes 1, 3-6), 0.6 mM m^7GDP (lane 3), 0.6 mM GDP (lane 4), or 50 μM hippuristanol (lane 6). Following nuclease digestion, samples were resolved by SDS-PAGE and the gel subjected to autoradiography.
(§2) Ribosome Binding and mRNA Crosslinking. Ribosome binding assays were performed by incubating ^32P-labelled CAT mRNA in rabbit reticulocyte lysate or wheat germ extracts in the presence of: 600 μM cycloheximide (CHX), 1 mM GMP-PNP, and/or 50 μM hippuristanol or vehicle for 10 min (33). […] Fractions of 500 μl were collected and radioactivity was determined by scintillation counting. […]

[2] = test system: Mahoney strain of poliovirus type 1; type: cell-based; conditions: HeLa cells, 2 pfu/cell, 80 nM
[3] = target: T1, eIF4Ac and eIF4B (Homo sapiens, UniProt P60842); assay: Chemical crosslinking of initiation factors to 32P cap-labeled mRNA; type: binding; conditions: 50 μM, in presence of ATP
T1 construct: Chemical crosslinking of initiation factor preparations to ^32P cap-labeled oxidized CAT mRNA
Description: as §1, §2

[4] = target: T2, eIF4AIf (Mus musculus, UniProt P60843); assay: RNA-dependent ATPase assay with recombinant eIF4AIf; type: biochemical, murine; conditions: 2.5 μM poly (U); relative to vehicle (0.5% DMSO)
T2 construct: inferred only from the Ni-NTA purification; made in house; host or cells: Escherichia coli BL21 (DE3) codon+
Description: (§3) FIG. 7. Effects of hippuristanol on ATP hydrolysis, ATP binding, and RNA binding activities of eIF4A. A. Hippuristanol inhibits eIF4AIf RNA-dependent ATPase activity. The rate of ATP hydrolysis as a function of hippuristanol concentration is plotted relative to the rate obtained in the presence of vehicle (0.5% DMSO). ATP hydrolysis was measured in the presence of 2.5 μM poly (U) and monitored by thin layer chromatography. […] Samples were resolved by SDS-PAGE and subjected to autoradiography. C. The RNA binding activity of eIF4AIf is inhibited by hippuristanol. Oxidized ^32P-cap labeled CAT mRNA was incubated with recombinant eIF4AIf in the absence (lane 2) or presence of ATP (lanes 1, 3-6), 0.6 mM m^7GDP (lane 3), 0.6 mM GDP (lane 4), or 50 μM hippuristanol (lane 6). Following treatment with RNase A, samples were resolved by SDS-PAGE and subjected to autoradiography. The asterisk denotes the position of migration of a ˜30 kDa contaminant in the recombinant eIF4AIf preparation used as an internal loading reference. D. The RNA binding activity of eIF4Ac is inhibited by hippuristanol. Oxidized ^32P-cap labeled CAT mRNA was incubated with 0.7 μg of native eIF4F in the absence (lane 1) or presence (lane 2) of 50 μM hippuristanol. […]
(§4) Recombinant eIF4AI Purification and Assays. […] Quantifications were performed on a Fujix BAS2000 phosphoimager with a Fuji imaging screen. […]

[5] = target: T3, eIF4Ac (Homo sapiens, UniProt P60842); assay: UV crosslinking of alpha-32P-ATP to native eIF4F; type: binding; conditions: 50 μM
Description: as §3, §4

[6] = target: T3, eIF4Ac; assay: Crosslinking of oxidized 32P-cap labeled CAT mRNA to native eIF4F (RNA binding); conditions: 50 μM, 0.7 μg native eIF4F
Description: as §3
Ribosome Binding and mRNA Crosslinking. […] Fractions of 500 μl were collected and radioactivity was determined by scintillation counting. […]

[7] = target: T2, eIF4AIf; assay: Helicase (unwinding) assay with RNA-1/RNA-11 duplex; type: biochemical, murine; conditions: 50 μM
Description: FIG. 8. Selective inhibition of eIF4A activity by hippuristanol. A. Hippuristanol inhibits eIF4AIf-mediated helicase activity. Unwinding reactions were performed with RNA-1/RNA-11 duplex and recombinant eIF4AIf or Ded1p. The presence of 50 μM hippuristanol in the reaction is indicated above the panel. […] Double-stranded RNA duplex and single-stranded RNA molecules are schematically represented to the left of the panel. […] In vitro splicing reactions were performed with the AdML pre-mRNAs as previously described (48). AdML pre-mRNA was incubated with nuclear extracts in the presence of increasing amounts of hippuristanol (2 μM [lane4], 10 μM [lane 5] and 50 μM [lane 6]). Reaction products were resolved on 15% polyacrylamide/8M urea gels and subjected to autoradiography. The position of migration of the pre-mRNA and spliced product is denoted to the right. C. Rescue of hippuristanol-induced inhibition with recombinant eIF4AIf. […] A graphical representation from three experiments is provided below. Translational efficiency was calculated relative to luciferase values obtained from control translations containing vehicle (0.5% DMSO).
as §4

T3 sequence (P60842 whole entry): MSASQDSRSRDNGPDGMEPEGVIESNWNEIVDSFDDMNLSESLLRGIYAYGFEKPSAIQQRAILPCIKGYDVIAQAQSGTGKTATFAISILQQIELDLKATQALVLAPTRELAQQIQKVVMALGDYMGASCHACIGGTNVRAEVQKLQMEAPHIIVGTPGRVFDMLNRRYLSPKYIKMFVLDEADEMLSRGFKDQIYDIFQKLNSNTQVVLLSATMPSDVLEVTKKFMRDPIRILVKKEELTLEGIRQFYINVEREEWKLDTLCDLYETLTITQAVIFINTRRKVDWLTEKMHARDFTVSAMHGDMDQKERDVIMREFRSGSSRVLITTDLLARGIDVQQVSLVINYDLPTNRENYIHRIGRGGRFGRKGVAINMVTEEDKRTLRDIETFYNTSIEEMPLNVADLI
T3 sequence (P06730 whole entry partner): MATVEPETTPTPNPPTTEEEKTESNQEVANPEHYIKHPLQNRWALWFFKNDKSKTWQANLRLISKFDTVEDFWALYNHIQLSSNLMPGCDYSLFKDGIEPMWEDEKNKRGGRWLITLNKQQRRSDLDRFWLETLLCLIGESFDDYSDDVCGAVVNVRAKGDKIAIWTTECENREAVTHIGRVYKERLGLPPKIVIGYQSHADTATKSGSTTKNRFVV
T3 sequence (Q04637 whole entry partner): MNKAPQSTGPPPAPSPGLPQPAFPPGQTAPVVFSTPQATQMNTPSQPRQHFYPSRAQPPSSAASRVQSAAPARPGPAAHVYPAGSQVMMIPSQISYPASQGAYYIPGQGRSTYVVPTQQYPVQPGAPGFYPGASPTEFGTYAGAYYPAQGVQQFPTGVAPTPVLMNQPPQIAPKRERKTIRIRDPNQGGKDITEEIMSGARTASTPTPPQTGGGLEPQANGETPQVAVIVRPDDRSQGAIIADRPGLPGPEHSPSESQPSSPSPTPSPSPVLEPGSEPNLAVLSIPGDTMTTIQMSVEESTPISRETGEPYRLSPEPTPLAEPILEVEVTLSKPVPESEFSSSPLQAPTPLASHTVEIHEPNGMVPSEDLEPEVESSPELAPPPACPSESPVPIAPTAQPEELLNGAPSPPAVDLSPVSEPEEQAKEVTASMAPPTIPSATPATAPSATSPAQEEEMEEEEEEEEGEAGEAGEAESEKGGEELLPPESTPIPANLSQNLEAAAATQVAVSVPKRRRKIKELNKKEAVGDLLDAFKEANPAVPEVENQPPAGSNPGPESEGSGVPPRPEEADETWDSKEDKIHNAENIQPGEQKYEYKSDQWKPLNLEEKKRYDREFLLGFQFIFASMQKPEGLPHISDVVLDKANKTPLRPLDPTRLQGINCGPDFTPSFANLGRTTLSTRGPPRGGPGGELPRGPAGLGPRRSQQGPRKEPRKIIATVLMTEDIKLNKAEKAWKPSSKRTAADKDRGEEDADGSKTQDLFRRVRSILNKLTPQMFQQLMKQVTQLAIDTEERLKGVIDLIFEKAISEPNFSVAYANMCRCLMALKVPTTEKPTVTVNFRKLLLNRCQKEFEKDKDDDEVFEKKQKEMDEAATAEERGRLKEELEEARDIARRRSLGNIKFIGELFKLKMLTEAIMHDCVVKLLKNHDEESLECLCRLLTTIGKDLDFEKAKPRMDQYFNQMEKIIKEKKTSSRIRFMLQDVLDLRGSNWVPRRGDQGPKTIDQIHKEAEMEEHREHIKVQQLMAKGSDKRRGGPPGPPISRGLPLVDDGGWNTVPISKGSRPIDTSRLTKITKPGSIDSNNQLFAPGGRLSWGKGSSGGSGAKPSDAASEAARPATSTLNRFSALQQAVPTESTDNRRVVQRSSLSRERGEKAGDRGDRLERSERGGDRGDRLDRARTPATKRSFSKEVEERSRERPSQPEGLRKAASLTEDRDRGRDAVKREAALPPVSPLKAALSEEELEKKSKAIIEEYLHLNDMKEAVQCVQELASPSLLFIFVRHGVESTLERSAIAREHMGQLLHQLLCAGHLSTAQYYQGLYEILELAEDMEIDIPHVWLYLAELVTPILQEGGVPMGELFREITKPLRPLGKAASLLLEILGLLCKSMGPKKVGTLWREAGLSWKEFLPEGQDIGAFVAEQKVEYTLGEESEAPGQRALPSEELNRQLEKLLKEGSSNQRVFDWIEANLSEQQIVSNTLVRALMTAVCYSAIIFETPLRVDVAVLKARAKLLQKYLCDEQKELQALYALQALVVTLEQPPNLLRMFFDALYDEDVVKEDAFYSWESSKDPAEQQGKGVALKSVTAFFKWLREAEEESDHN
T2 sequence (P60843 whole entry): as the sequence (P60842 whole entry) above
T1 sequence (P60842 whole entry): as above
T1 sequence (Q04637 whole entry partner): as the sequence (Q04637 whole entry partner) above
T1 sequence (P06730 whole entry partner): as the sequence (P06730 whole entry partner) above

## C[C@H]1C[C@@]2(O[C@H]3C[C@H]4[C@@H]5CC[C@H]6C[C@H](O)CC[C@]6(C)[C@H]5[C@@H](O)C[C@]4(C)[C@H]3[C@@]2(C)O)OC1(C)C [Hippuristanol, hippuristanol]
[1]
  percent mRNA bound in 80S complexes: 5.7%
[2]
  eIF4GII cleavage following poliovirus infection: delays
  onset of poliovirus proteins during infection: delays
[3]
  crosslinking of eIF4Ac and eIF4B to capped mRNA: inhibits
[4]
  eIF4AIf RNA-dependent ATPase activity: inhibits
[5]
  ATP crosslinking to eIF4Ac: does not affect
[6]
  RNA binding activity of eIF4Ac: inhibited
[7]
  eIF4AIf-mediated helicase activity: inhibits
